# Source: PMC7717691, “Design, synthesis, and anticonvulsant effects evaluation of nonimidazole histamine H3 receptor antagonists/inverse agonists containing triazole moiety” (Journal of Enzyme Inhibition and Medicinal Chemistry, 2020)
# Entries after “also recorded” stand apart in the source; their conditions may differ. Read-outs that look alike come from different tables or passages of the source.
# Columns and labels:
# H3R [1] = biological target: T1, H3R (Homo sapiens, UniProt Q9Y5N1); assay: CRE-driven luciferase reporter gene assay, H3R antagonistic activity; assay type: cell-based; settings: for % Antagonism 100 nM: 100 nM compound; for % Antagonism 100 nM / % Antagonism 1 μM: HEK-293 cells expressing human H3R, mean ± SD of three experiments; for % Antagonism 1 μM: 1 μM compound
# T1 construct: expressed in transfected cells
# Description: cAMP-response element (CRE) reporter gene assay has been extensively used to evaluate the efficacy of GPCR antagonists or agonists. […] Initially, compounds and positive controls were tested at two concentrations (100 nM and 1 µM) to obtain the preliminary investigation of their H3R antagonistic activities. In the assays, the antagonistic activities was positively correlated with the rise of the fluorescence value and indicated by the % antagonism. For the prominent compounds IC50 values were determined at additional assays.
# Human thalamus poly-A RNA (Clontech, Palo Alto, CA, USA) was used to clone the hH3R gene by RT-PCR. DNA PCR primers were designed in the light of the reported human histamine receptor gene sequences (GenBank accession no.AF140538). HEK-293 cells were cultured and transfected for the luciferase assay. The detailed procedures were described in the previous publication.
# Stable HEK-293 cells, which had been co-transfected with H3R and pCRE-Luc, were seeded in a 96-well plate overnight, and were grown to 90–95% confluence[43]^,[44]. Then the cells were treated with various concentrations of tested compounds in serum-free DMEM and incubated for 20 min. Cells were then stimulated with 100 nM Histamine in serum-free DMEM containing 2 µM Forskolin and incubated for 4 h at 37 °C. Firefly luciferase assay kits (Ken-real, Shanghai, China) were used to determine the luciferase activity.
# MES-induced convulsions = MES-induced convulsions model; assay type: in vivo; settings: mice; for protection against MES-induced convulsions (reduction or abolition of THLE): i.p.; for protection against MES-induced convulsions in different doses: Figure 7
# Excerpt: Protection for the mice was defined as the reduction or abolition of the tonic hind limb extension (THLE) in the MES model in mice.
# Ear stimulation with alternating current (0.2 s, 60 Hz, 50 mA) was used to induce the seizures in mice. The reduction or abolition of the hind limb tonic extension (THLE) of mice was considered protective against the MES-induced seizures[29]^,[48]. […]
# PTZ-induced convulsions = PTZ-induced convulsions model; assay type: in vivo; settings: mice, PTZ 85 mg/kg s.c.
# Description: To investigate the anticonvulsive effects, all the target compounds (3a-3q) were screened in the MES-induced and PTZ-induced convulsion models in mice. Compounds were administered intraperitoneally (i.p.) to mice at dosage of 10 mg/kg in the both models. PIT and valproic sodium (VPA) were used as positive controls in the tests.
# PTZ (85 mg/kg) was injected subcutaneously to induce seizures. […] The following are the specific meaning of graded scores: score 0 = normal, score 1 = eyelids or facial twitches, score 2 = agitation with body twisting, score 3 = myo-clonic jerks or rearing, score 4 = turn over into one side position or running violently, and score 5 = turn over into back position, limbs tonic extension, or die during the experiment period.
# MES [2] = settings: cited from earlier work
# PTZ [3] = settings: 10 mg/kg i.p., cited from earlier work
# [4] = system: human photosensitivity model; settings: dose ranges of 30–60 mg, alone or in combination with other AEDs; cited from earlier work
# MES [5] = settings: cited from earlier work; remark: listed apart in the source
# PTZ [6] = settings: cited from earlier work
# intracellular cAMP = assay: Effect of compounds administrated alone on the level of intracellular cAMP; assay type: cell-based; settings: compound alone; ANOVA followed by Dunnett's test; Figure 2
# Excerpt: It is well known that H3R is a GPCR coupled with Gαi. When the ligand (histamine) binds to H3R, the dissociated Gαi inhibits the activity of adenylate cyclase (AC) and down-regulates the level of intracellular cAMP. In this CREs driven luciferase assay, when cells were pre-treated by H3R antagonists, the downregulation of cAMP would be inhibited, and the level of intracellular cAMP would regain to the initial level.
# H3R [7] = biological target: T1, H3R; assay: CRE-luciferase assay, H3R inverse agonist activity (forskolin-stimulated transfected HEK-293 cells); assay type: cell-based; settings: 10 µM forskolin plus compound; seven concentrations; read-out: H3R inverse agonistic activity EC50
# Description: The raise of luciferase activity after adding compound represented the inverse agonistic activity. The EC50 was calculated by seven concentrations.
# [8] = Rotarod test (neurotoxicity); assay type: in vivo; settings: 10 and 20 mg/kg
# Excerpt: To exclude the possibility that the anticonvulsant activity of 3m was connected with sedative effect, we carried out a rotarod test for 3m.
# [9] = 10 mg/kg, 30 min before stimulation, vs saline group
# T1 sequence (Q9Y5N1 whole entry): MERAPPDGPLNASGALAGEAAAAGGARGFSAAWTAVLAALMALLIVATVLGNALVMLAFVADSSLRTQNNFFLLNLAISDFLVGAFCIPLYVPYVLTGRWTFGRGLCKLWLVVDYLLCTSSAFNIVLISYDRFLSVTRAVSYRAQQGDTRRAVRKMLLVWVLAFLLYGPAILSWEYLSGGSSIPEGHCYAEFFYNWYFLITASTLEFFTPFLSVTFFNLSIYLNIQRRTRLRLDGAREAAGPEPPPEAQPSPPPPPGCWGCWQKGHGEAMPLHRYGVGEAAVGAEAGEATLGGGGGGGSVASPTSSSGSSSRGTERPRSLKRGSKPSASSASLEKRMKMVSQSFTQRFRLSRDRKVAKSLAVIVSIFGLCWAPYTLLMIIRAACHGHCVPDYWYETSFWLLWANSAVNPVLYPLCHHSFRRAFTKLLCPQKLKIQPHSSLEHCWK
smiles,measurement,setting,value
"Clc1ccc(CCCOCCCN2CCCCC2)cc1 [PIT, Pitolisant, reference compound]",% Antagonism 100 nM,H3R [1],54.16 ± 7.33%
same,% Antagonism 1 μM,H3R [1],246.29 ± 21.48%
same,protection against MES-induced convulsions (reduction or abolition of THLE),MES-induced convulsions; [9],moderately
same,protection against MES-induced convulsions (THLE),MES-induced convulsions; 20 mg/kg,fully abrogate the tonic hind limb extension; also recorded: fully abrogate the THLE
same,protection against MES-induced convulsions in different doses,MES-induced convulsions,dose-dependently
same,protection against PTZ-induced convulsions,PTZ-induced convulsions; 10 mg/kg i.p.,failed to protect
same,MES (rats),"MES [2]; 10 mg/kg i.p., ref not printed (Figure 1)",protection
same,PTZ (rats),PTZ [3]; ref not printed (Figure 1),no protection
same,EEG profile in the human photosensitivity model,[4],favourable EEG profile in a dose-dependent manner
CCC(C)(C)c1ccc(OCCCN2CCCCC2)cc1 [DL-77],MES (rats),"MES [2]; 5, 10, 15 mg/kg",protection
"CCCC(CCC)C(=O)O [VPA, Valproic acid, reference compound]",protection against MES-induced convulsions (reduction or abolition of THLE),MES-induced convulsions; 300 mg/kg,potently
same,protection against PTZ-induced convulsions,PTZ-induced convulsions; 300 mg/kg i.p.,full protection
CCCCCCCOc1ccc2c(c1)-c1nncn1CCO2 [II],MES (mice),MES [5]; 10 mg/kg i.p.,protection
same,PTZ (mice),PTZ [6]; 30 mg/kg i.p.,protection
O=C1NC(c2ccccc2)(c2ccccc2)C(=O)N1CCCN1CCCCC1 [H3R ligand I],MES (rats),MES [2]; 1 mg/kg i.p.,protection
same,PTZ (rats),PTZ [3],protection
S=C(NC1CCCCC1)N1CCC(c2cnc[nH]2)CC1 [Thioperamide],MES (mice),MES [5]; 10 & 15 mg/kg i.p.,protection
same,PTZ (mice),PTZ [6]; 7.5 & 15 mg/kg i.p.,protection
"Clc1ccc(-c2nncn2-c2ccc(OCCCN3CCCCC3)cc2)cc1 [Compound 3m, 1-(3-(4-(3-(4-chlorophenyl)-4H-1,2,4-triazol-4-yl)phenoxy)propyl)piperidine]",% Antagonism 100 nM,H3R [1],201.12 ± 12.63%
same,% Antagonism 1 μM,H3R [1],203.92 ± 8.44%
same,IC50,"H3R [1]; CRE luciferase assay, HEK-293 cells, Table 1",5.92 nM
same,effect on the level of cAMP when treated alone,intracellular cAMP,no significant effects
same,EC50,H3R [7],129 nM
same,protection against MES-induced seizures when co-treated with RAMH,MES-induced convulsions; 10 mg/kg i.p. plus RAMH 10 mg/kg i.p.,fully abrogated; also recorded: lost its original protective effect
same,protection against MES-induced convulsions (reduction or abolition of THLE),MES-induced convulsions; [9],moderate protection
same,protection against MES-induced convulsions in different doses,MES-induced convulsions,dose dependent
same,neurotoxicity in rotarod test,[8],no neurotoxicity
same,melting point,,165 to 167 °C
